Experiments:
[1] = biological target: T1, Serine/threonine-protein kinase Nek9 (Homo sapiens) (UniProt Q8TD19); assay: Selectivity interaction (KinomeScan (DiscoverX)) EUB0001049a NEK9; conditions: at 1 µM
T1 sequence (whole entry): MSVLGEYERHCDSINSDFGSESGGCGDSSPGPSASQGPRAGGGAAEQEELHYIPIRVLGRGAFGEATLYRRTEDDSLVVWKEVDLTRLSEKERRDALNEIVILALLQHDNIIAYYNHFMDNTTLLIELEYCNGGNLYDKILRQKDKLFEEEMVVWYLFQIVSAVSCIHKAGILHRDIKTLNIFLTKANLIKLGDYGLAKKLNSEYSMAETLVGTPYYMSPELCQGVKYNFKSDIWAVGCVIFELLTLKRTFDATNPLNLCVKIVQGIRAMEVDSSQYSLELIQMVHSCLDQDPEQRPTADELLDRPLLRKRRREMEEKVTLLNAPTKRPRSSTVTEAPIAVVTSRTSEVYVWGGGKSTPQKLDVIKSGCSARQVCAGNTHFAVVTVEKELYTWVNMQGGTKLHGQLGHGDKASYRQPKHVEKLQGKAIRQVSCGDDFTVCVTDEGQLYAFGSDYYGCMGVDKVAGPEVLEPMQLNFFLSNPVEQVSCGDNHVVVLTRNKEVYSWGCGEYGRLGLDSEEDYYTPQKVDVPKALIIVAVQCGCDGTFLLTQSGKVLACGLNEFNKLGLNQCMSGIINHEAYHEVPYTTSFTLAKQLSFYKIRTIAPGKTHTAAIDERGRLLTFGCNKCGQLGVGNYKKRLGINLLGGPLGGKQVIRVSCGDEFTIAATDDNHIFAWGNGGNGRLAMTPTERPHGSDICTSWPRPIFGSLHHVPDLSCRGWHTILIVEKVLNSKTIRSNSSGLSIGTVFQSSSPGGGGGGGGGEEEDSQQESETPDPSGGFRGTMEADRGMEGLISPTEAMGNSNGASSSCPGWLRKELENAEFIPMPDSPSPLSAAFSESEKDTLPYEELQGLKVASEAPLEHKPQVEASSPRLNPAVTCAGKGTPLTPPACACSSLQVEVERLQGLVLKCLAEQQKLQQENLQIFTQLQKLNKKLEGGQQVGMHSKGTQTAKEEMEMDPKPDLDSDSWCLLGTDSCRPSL

[2] = biological target: T2, Phosphatidylinositol 4,5-bisphosphate 3-kinase catalytic subunit delta isoform (Homo sapiens) (UniProt O00329); assay: Selectivity interaction (ActivX KiNativ screen (kinase selectivity in THP-1 cell lysates)) EUB0000639a PIK3CD; type: subcellular; conditions: lysate, at 0.2 µM
T2 sequence (whole entry): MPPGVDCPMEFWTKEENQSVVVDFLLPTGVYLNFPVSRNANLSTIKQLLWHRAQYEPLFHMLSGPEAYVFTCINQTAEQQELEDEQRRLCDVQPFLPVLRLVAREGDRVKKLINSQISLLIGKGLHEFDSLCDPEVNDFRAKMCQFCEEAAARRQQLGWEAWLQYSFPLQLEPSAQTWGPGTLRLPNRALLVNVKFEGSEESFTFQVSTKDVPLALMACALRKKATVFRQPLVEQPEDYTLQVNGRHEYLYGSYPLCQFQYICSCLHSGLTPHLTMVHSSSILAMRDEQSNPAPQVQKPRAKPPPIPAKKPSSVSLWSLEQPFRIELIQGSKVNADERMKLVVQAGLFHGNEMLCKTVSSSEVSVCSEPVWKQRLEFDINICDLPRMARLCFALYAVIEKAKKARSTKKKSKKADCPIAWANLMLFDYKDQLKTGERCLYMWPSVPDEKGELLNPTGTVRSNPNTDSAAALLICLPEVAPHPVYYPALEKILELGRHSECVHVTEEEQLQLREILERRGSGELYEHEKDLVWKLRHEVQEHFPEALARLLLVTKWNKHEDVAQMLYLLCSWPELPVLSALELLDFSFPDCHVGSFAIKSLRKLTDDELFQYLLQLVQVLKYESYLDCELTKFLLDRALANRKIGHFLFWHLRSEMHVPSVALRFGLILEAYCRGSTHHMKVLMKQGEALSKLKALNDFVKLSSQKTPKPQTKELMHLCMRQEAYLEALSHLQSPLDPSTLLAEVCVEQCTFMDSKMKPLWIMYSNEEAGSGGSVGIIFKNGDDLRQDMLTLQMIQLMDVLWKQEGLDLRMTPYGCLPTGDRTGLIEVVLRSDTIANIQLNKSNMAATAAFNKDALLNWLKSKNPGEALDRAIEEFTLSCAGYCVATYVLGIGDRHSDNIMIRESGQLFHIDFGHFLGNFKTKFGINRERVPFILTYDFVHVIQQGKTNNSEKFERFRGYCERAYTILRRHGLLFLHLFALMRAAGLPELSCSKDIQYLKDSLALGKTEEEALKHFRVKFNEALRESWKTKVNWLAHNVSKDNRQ

[3] = biological target: T3, Kinase suppressor of Ras 2 (Homo sapiens) (UniProt Q6VAB6); assay: Selectivity interaction (ActivX KiNativ screen (kinase selectivity in THP-1 cell lysates)) EUB0000639a KSR2; type: subcellular; conditions: lysate
T3 sequence (whole entry): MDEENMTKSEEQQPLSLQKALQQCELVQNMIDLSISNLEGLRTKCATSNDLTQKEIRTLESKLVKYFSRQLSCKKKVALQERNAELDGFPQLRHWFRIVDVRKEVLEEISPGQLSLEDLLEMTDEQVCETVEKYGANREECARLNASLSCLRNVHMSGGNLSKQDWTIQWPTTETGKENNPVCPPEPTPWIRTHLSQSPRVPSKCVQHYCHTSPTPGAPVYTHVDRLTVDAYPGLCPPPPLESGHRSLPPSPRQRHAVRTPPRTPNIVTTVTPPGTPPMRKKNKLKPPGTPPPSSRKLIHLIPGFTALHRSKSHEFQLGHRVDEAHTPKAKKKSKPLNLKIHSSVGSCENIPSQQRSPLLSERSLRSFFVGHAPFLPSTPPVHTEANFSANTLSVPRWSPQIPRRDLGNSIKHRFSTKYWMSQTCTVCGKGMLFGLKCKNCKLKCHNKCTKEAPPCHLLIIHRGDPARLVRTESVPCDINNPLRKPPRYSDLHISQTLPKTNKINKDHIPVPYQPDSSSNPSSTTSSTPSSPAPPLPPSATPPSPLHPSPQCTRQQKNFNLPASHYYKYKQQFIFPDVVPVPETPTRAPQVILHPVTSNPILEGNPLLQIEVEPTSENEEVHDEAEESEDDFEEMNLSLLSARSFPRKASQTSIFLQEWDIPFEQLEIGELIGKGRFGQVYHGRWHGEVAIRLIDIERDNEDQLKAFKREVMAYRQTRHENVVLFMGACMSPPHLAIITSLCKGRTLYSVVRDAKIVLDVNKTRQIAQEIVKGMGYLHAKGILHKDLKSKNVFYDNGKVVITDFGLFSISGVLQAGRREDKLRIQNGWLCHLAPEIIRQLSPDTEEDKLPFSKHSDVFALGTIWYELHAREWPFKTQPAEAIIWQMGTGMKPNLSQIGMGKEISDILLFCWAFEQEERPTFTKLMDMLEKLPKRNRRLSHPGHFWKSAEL

Row | SMILES | % of control [1] [%] | % of inhibition [2] [%] | % of inhibition ([3]; at 0.01 µM) [%] | % of inhibition ([3]; at 0.2 µM) [%] | % of inhibition ([3]; at 1 µM) [%] | % of inhibition ([3]; at 5 µM) [%]
1 | COc1cc(Nc2nc(C)cc(-c3cnn4nc(OC)ccc34)n2)cc(C(F)(F)F)c1 | 94 | – | – | – | – | –
2 | CC[C@@H]1[C@H](F)C(=O)N[C@@H]1COc1nccc2cc(C(N)=O)c(OC)cc12 [ZIMLOVISERTIB] | – | 4.7 | 2.4 | -8.6 | -32.8 | -57.9
